Experimental data as given in ChEMBL document CHEMBL1145393, “Synthesis and antitumour activity of new tiazofurin analogues bearing a 2,3-anhydro functionality in the furanose ring” (Bioorg Med Chem Lett, 2007).

How the values were obtained:
MCF7 = assay: Cytotoxicity against human MCF7 cell line after 48 hrs by MTT assay; format: cell-based; conditions: MCF7, 48 h
K562 = assay: Cytotoxicity against human K562 cells after 48 hrs by MTT assay; format: cell-based; conditions: K562, 48 h
Jurkat = assay: Cytotoxicity against human Jurkat T cells after 48 hrs by MTT assay; format: cell-based
HL-60 = assay: Cytotoxicity against human HL60 cell line after 48 hrs by MTT assay; format: cell-based; conditions: HL-60, 48 h
HT-29 = assay: Cytotoxicity against human HT29 cell line after 48 hrs by MTT assay; format: cell-based; conditions: HT-29, 48 h
Raji = assay: Cytotoxicity against human Raji cells after 48 hrs by MTT assay; format: cell-based
MRC5 = assay: Cytotoxicity against human MRC5 cell line after 48 hrs by MTT assay; format: functional, cell-based; conditions: MRC5, 48 h

NC(=O)c1csc(C[C@@H]2O[C@H](CO)[C@H]3O[C@H]32)n1 showed an IC50 (MCF7) of 9090 nM, an IC50 (K562) of 490 nM and an IC50 (Jurkat) of 2180 nM. The IC50 (HL-60) was 3500 nM, the IC50 (HT-29) was 90 nM and the IC50 (Raji) was 70 nM. For the same compound, the IC50 (MRC5) was greater than 100000 nM.
With NC(=O)c1csc(C[C@H]2O[C@H](CO)[C@H]3O[C@H]32)n1 the IC50 (MCF7) was 10000 nM, the IC50 (K562) was 90 nM and the IC50 (Jurkat) was 11000 nM. For the same compound, the IC50 (HL-60) was greater than 100000 nM, the IC50 (HT-29) was 530 nM and the IC50 (Raji) was greater than 100000 nM. For the same compound, the IC50 (MRC5) was greater than 100000 nM.
NC(=O)c1csc([C@@H]2O[C@H](CO)[C@H]3O[C@H]32)n1 was tested, and the IC50 (MCF7) was 960 nM, the IC50 (K562) was 190 nM and the IC50 (Jurkat) was 4840 nM. For the same compound, the IC50 (HL-60) was 2080 nM, the IC50 (HT-29) was greater than 100000 nM and the IC50 (Raji) was 540 nM. It also gave an IC50 (MRC5) greater than 100000 nM.
Work on NC(=O)c1csc([C@@H]2O[C@H](CO)[C@@H](O)[C@H]2O)n1 [TIAZOFURIN] yielded an IC50 (MCF7) of 6390 nM, an IC50 (Jurkat) of 510 nM and an IC50 (HL-60) of 1840 nM. It also gave an IC50 (HT-29) of 890 nM, an IC50 (Raji) of 16100 nM and an IC50 (MRC5) of 490 nM.
